From patent US11197812B2, “Cosmetic formulations for topical applications containing erythropoietin-derived molecules” (ASC REGENITY LTD., priority 2016, dated 2021)
Where no end group is shown, it is not given here.

Columns and labels:
[1] = test system: severe acne on the face and neck; test: Acne Trial 1 (single test person); assay type: in vivo, human; conditions: after one week of treatment with the respective formulation
Protocol: The test person was a person with severe acne on the face and neck. They were treated for one week with a standard cosmetic formulation based on a control lipid (dexpanthenol/panthenol), but without a polypeptide according to the invention. […] Then a cosmetic formulation according to the invention was applied, but again without a polypeptide according to the invention. The formulation contained ceramides and lecithin instead of dexpanthanol, and amino acids such as L-arginine. […] The test person then was treated with a formulation of the invention now comprising “Peptide 0”. […] After 3 weeks the test person was treated with the same formulation but which now comprised “Peptide 4” instead of the reference polypeptide (“Peptide 0”).

[2] = test system: facial skin of healthy subjects; test: Cosmetic skin improvement assay (Canfield VISIA facial skin analysis); assay type: in vivo, human; conditions: cream once a day, after one month, versus controls / dexpanthenol 5% / QEQLERALNSS formulation
Source text: In this assay the cosmetic facial skin appearance upon application of the formulations of this invention was monitored. For that purpose, the commercially available state-of-the-art facial skin imaging and data analysis platform, the Canfield Bio Visia™, was utilized, (see here: https://www.canfieldsci.com/imaging-systems/visia-complexion-analysis/). This platform provides the possibility of a i) highly standardized, ii) highly reproducible, iii) quantitative, iv) non-invasive, and vi) subject or tester bias-free skin quality analysis. It records several photos of the face from different angles and records absorption/reflection spectra (see figure: Canfield VISIA facial skin analysis platform). […] The in-built software standardizes every parameter by comparison to a large database of skin feature norms and returns a value in the range of 0%-to 100% to permit inter-individual subject comparison.
Healthy subjects received cosmetic creams with formulations of this invention or controls in a blinded manner, i.e. the subjects were unaware of the identity of the received cosmetic cream. […] Subject skin quality was assessed before the start of the application and after one month (31±3 days). As a control, to account for seasonal and lifestyle change associated skin quality changes, quality of the hand exterior surface was monitored as well. […]

[3] = test system: UV light-induced erythema on skin of healthy subjects; test: Erythema recovery assay (UVB light-induced erythema, doubled MED); assay type: in vivo, human; conditions: 20 μl lotion on 1×1 cm^2 area, 6 hours after exposure, normalized redness
Source text: Another means of measuring the efficacy of tissue-protection exerted by any formulation is the speed of skin recovery from a UVB light-induced erythema such as common sunburns. Erythema are skin irritations with enhanced redness of the skin due to local hyperaemia (enhanced blood flow in superficial capillaries) that is associated with repair processes in the skin. The quicker the repair process is, the quicker the hyperaemia gets shut down and thus the quicker the skin redness gets reduced to normal levels. Accordingly, the redness can be measured as a proxy for the damage status of the skin.
In this assay, healthy subjects received the doubled minimal erythema dose (MED) on skin areas of about 1×1 cm^2 on the left arm. Beforehand, the MED was determined individually for each subject by exposing other skin areas to increasing intensities of UV light emitted by the UV6 lamp (280-360 nm) of the Waldmann UV 802 L device. […]
Before light double MED exposure and after 6 hours, skin redness in the exposed area was spectroscopically measured using the ‘chroma meter CR-400’ manufactured by Konica Minolta. Redness of every area in every subject 6 hours after the exposure was normalized to the redness of the same area before the exposure by division of measured redness values. […]

skin = test: Relative cosmetic relevance in over-all skin-protective activity; design: species or system human
[4] = test system: persons suffering from acne; conditions: human, in vivo
Protocol: Four test groups (corresponding to the “peptides, 0, 2, 3 and 4”) with each five persons (in total, 20 subjects) suffering from acne, were treated twice daily with a formulation of the invention (“iARP-lotion” with trigger factor complex) for one week. No undesirable or even pathological lesions in the relevant skin area of the test persons were observed.

| Compound | overall skin tolerance compatibility [4] | unwanted skin reactions caused by skin-irritating or sensitizing effects [4] | also measured |
| --- | --- | --- | --- |
| CC(C)(CO)[C@@H](O)C(=O)NCCCO [Dexpanthenol] | – | – | change of acne [1]: slightly reduced |
| NEQLERALNST (RRQEQLERALNSSRR; ′Peptide 0′ plus vasculature relaxation stimulating agents at 5′- and 3′ end;) [Peptide 1] | – | – | improvement of measured skin parameters (spots, wrinkles, smoothness) [2]: performed even better than the formulations with the previously described […] peptide; double MED-induced skin redness (erythema) [3]: performed even better than the formulations with the previously described […] peptide; relative cosmetic relevance in over-all skin-protective activity (rank order) (skin): EPO<EPO fragments 1-3<Peptide 0, 1<Peptide 3<Peptide 2<Peptide 4 |
| NEQLERALNTS [Peptide 2, NEQLERALNTS] | improved overall skin tolerance compatibility as excellent | did not trigger any unwanted skin reactions | – |
| QDQLERALNST [Peptide 3, QDQLERALNST] | improved overall skin tolerance compatibility as excellent | did not trigger any unwanted skin reactions | – |
| QDQLERALNTS [Peptide 4, QDQLERALNTS] | still rated good | did not trigger any unwanted skin reactions | – |
| QEQLERALNSS [Peptide 0, QEQLERALNSS, reference compound] | – | did not trigger any unwanted skin reactions | – |
